Assay results: the NIST ThermoML archive (doi:10.1021/je5010643)
± gives the expanded uncertainty stated by the source.

Test: refractive index (Na D-line) (dimensionless); xn = mol fraction of the nth substance listed
Conditions: 101.32 kPa, Liquid, Standard Abbe refractometry

Which refractive index (295.15 K, x2 = 0) does the source give for CC(C)C(=O)O [2-methylpropanoic acid] + C1COCCO1 here?
Its refractive index is 1.3919 ± 0.0004.

What about the refractive index (295.15 K, x2 = 0.1) of the same compound?
The refractive index was 1.3955 ± 0.0004.

And the refractive index (295.15 K, x2 = 0.2)?
Its refractive index is 1.3988 ± 0.0004.

And the refractive index (295.15 K, x2 = 0.3)?
The refractive index was 1.4021 ± 0.0004.

What about the refractive index (295.15 K, x2 = 0.4) of the same compound?
Its refractive index is 1.4052 ± 0.0004.

What about the refractive index (295.15 K, x2 = 0.5) of the same compound?
The refractive index was 1.4082 ± 0.0004.

And the refractive index (295.15 K, x2 = 0.6)?
The refractive index was 1.411 ± 0.0004.

And the refractive index (295.15 K, x2 = 0.7)?
The refractive index was 1.4137 ± 0.0004.

What about the refractive index (295.15 K, x2 = 0.8) of the same compound?
The refractive index was 1.4161 ± 0.0004.

What about the refractive index (295.15 K, x2 = 0.9) of the same compound?
Its refractive index is 1.4185 ± 0.0004.

And the refractive index (298.15 K, x2 = 0)?
Its refractive index is 1.3907 ± 0.0004.

What about the refractive index (298.15 K, x2 = 0.1) of the same compound?
The refractive index was 1.3942 ± 0.0004.

And the refractive index (298.15 K, x2 = 0.2)?
The refractive index was 1.3974 ± 0.0004.

And the refractive index (298.15 K, x2 = 0.3)?
The refractive index was 1.4007 ± 0.0004.

What about the refractive index (298.15 K, x2 = 0.4) of the same compound?
The refractive index was 1.4038 ± 0.0004.

And the refractive index (298.15 K, x2 = 0.5)?
Its refractive index is 1.4068 ± 0.0004.

What about the refractive index (298.15 K, x2 = 0.6) of the same compound?
The refractive index was 1.4096 ± 0.0004.

And the refractive index (298.15 K, x2 = 0.7)?
Its refractive index is 1.4122 ± 0.0004.

And the refractive index (298.15 K, x2 = 0.8)?
Its refractive index is 1.4146 ± 0.0004.

And the refractive index (298.15 K, x2 = 0.9)?
Its refractive index is 1.4171 ± 0.0004.

And the refractive index (301.15 K, x2 = 0)?
Its refractive index is 1.3895 ± 0.0004.

What about the refractive index (301.15 K, x2 = 0.1) of the same compound?
Its refractive index is 1.3929 ± 0.0004.

And the refractive index (301.15 K, x2 = 0.2)?
Its refractive index is 1.3961 ± 0.0004.

What about the refractive index (301.15 K, x2 = 0.3) of the same compound?
Its refractive index is 1.3993 ± 0.0004.

And the refractive index (301.15 K, x2 = 0.4)?
The refractive index was 1.4024 ± 0.0004.

And the refractive index (301.15 K, x2 = 0.5)?
Its refractive index is 1.4054 ± 0.0004.

What about the refractive index (301.15 K, x2 = 0.6) of the same compound?
Its refractive index is 1.4082 ± 0.0004.

And the refractive index (301.15 K, x2 = 0.7)?
Its refractive index is 1.4107 ± 0.0004.

And the refractive index (301.15 K, x2 = 0.8)?
Its refractive index is 1.4132 ± 0.0004.

And the refractive index (301.15 K, x2 = 0.9)?
Its refractive index is 1.4156 ± 0.0004.

What about the refractive index (304.15 K, x2 = 0) of the same compound?
Its refractive index is 1.3883 ± 0.0004.

What about the refractive index (304.15 K, x2 = 0.1) of the same compound?
Its refractive index is 1.3916 ± 0.0004.

What about the refractive index (304.15 K, x2 = 0.2) of the same compound?
Its refractive index is 1.3948 ± 0.0004.

And the refractive index (304.15 K, x2 = 0.3)?
Its refractive index is 1.3979 ± 0.0004.

What about the refractive index (304.15 K, x2 = 0.4) of the same compound?
Its refractive index is 1.401 ± 0.0004.

And the refractive index (304.15 K, x2 = 0.5)?
Its refractive index is 1.4039 ± 0.0004.

And the refractive index (304.15 K, x2 = 0.6)?
Its refractive index is 1.4067 ± 0.0004.

And the refractive index (304.15 K, x2 = 0.7)?
The refractive index was 1.4093 ± 0.0004.

And the refractive index (304.15 K, x2 = 0.8)?
Its refractive index is 1.4117 ± 0.0004.

And the refractive index (304.15 K, x2 = 0.9)?
The refractive index was 1.4141 ± 0.0004.

What about the refractive index (307.15 K, x2 = 0) of the same compound?
The refractive index was 1.3872 ± 0.0004.

What about the refractive index (307.15 K, x2 = 0.1) of the same compound?
The refractive index was 1.3904 ± 0.0004.

And the refractive index (307.15 K, x2 = 0.2)?
Its refractive index is 1.3936 ± 0.0004.

And the refractive index (307.15 K, x2 = 0.3)?
The refractive index was 1.3967 ± 0.0004.

And the refractive index (307.15 K, x2 = 0.4)?
Its refractive index is 1.3997 ± 0.0004.

And the refractive index (307.15 K, x2 = 0.5)?
The refractive index was 1.4026 ± 0.0004.

And the refractive index (307.15 K, x2 = 0.6)?
The refractive index was 1.4054 ± 0.0004.

And the refractive index (307.15 K, x2 = 0.7)?
Its refractive index is 1.4079 ± 0.0004.

What about the refractive index (307.15 K, x2 = 0.8) of the same compound?
The refractive index was 1.4103 ± 0.0004.

And the refractive index (307.15 K, x2 = 0.9)?
The refractive index was 1.4127 ± 0.0004.

And the refractive index (310.15 K, x2 = 0)?
The refractive index was 1.386 ± 0.0004.

What about the refractive index (310.15 K, x2 = 0.1) of the same compound?
The refractive index was 1.3891 ± 0.0004.

What about the refractive index (310.15 K, x2 = 0.2) of the same compound?
The refractive index was 1.3923 ± 0.0004.

What about the refractive index (310.15 K, x2 = 0.3) of the same compound?
The refractive index was 1.3953 ± 0.0004.

And the refractive index (310.15 K, x2 = 0.4)?
The refractive index was 1.3983 ± 0.0004.

And the refractive index (310.15 K, x2 = 0.5)?
The refractive index was 1.4011 ± 0.0004.

And the refractive index (310.15 K, x2 = 0.6)?
Its refractive index is 1.4038 ± 0.0004.

And the refractive index (310.15 K, x2 = 0.7)?
The refractive index was 1.4063 ± 0.0004.

And the refractive index (310.15 K, x2 = 0.8)?
The refractive index was 1.4087 ± 0.0004.

And the refractive index (310.15 K, x2 = 0.9)?
The refractive index was 1.4112 ± 0.0004.

What about the refractive index (313.15 K, x2 = 0) of the same compound?
Its refractive index is 1.3849 ± 0.0004.

What about the refractive index (313.15 K, x2 = 0.1) of the same compound?
The refractive index was 1.3879 ± 0.0004.

And the refractive index (313.15 K, x2 = 0.2)?
The refractive index was 1.391 ± 0.0004.

And the refractive index (313.15 K, x2 = 0.3)?
The refractive index was 1.3941 ± 0.0004.

What about the refractive index (313.15 K, x2 = 0.4) of the same compound?
Its refractive index is 1.397 ± 0.0004.

And the refractive index (313.15 K, x2 = 0.5)?
Its refractive index is 1.3998 ± 0.0004.

What about the refractive index (313.15 K, x2 = 0.6) of the same compound?
The refractive index was 1.4025 ± 0.0004.

And the refractive index (313.15 K, x2 = 0.7)?
The refractive index was 1.4049 ± 0.0004.

What about the refractive index (313.15 K, x2 = 0.8) of the same compound?
Its refractive index is 1.4073 ± 0.0004.

And the refractive index (313.15 K, x2 = 0.9)?
The refractive index was 1.4098 ± 0.0004.
